ChEMBL document CHEMBL1132953, “Design and synthesis of pyrrolidine-5,5-trans-lactams (5-oxo-hexahydro-pyrrolo[3,2-b]pyrroles) as novel mechanism-based inhibitors of human cytomegalovirus protease. 1. The alpha-methyl-trans-lactam template” (J Med Chem, 2000)

Experiments:
[1] = Tested for inhibitory activity against elastase.
[2] = target: Prothrombin (Homo sapiens, UniProt P00734); experiment: Tested for inhibitory activity against Thrombin.

IC50 [1]: 7.58 µM
IC50 [2]: 6.2 µM
SMILES: CC(=O)OCC(=O)N1C(=O)C[C@@H]2[C@@H]1CCN2C(=O)OCc1ccccc1
